Source: BindingDB's records for doi:10.1021/np0302302 (Schering-Plough Research Institute, 2003)
pEC50: −log10 of the molar value.

Biological target: DNA primase DnaG (Escherichia coli) (UniProt P0ABS5)
Test: Inhibition of Escherichia coli DNA primase after 1 hr by [3H]rNTPs incorporation assay

Sequence of DNA primase DnaG (Escherichia coli) (P0ABS5 whole entry, looked up): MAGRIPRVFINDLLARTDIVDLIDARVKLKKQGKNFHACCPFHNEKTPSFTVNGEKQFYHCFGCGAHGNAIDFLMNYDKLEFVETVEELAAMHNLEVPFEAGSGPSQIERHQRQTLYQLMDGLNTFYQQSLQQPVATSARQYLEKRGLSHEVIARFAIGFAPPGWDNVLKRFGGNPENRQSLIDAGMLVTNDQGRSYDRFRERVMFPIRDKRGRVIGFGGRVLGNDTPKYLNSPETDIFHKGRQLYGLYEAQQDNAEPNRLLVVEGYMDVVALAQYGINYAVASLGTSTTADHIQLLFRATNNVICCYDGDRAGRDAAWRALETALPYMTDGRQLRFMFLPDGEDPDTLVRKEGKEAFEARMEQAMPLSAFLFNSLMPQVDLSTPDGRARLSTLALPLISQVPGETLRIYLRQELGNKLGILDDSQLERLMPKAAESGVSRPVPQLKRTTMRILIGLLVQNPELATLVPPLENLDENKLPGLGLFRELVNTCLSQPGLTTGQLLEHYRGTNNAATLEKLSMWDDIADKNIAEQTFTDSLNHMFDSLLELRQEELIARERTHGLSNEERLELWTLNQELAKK

Structure (SMILES): C[C@H]1CCCC[C@H]2C(=O)C=C[C@H](O)[C@@H]2CC(=O)O1 [(4S,8aR,12S,12aR)-12-hydroxy-4-methyl-4,5,6,7,8,8a-hexahydro-1H-benzo[d]oxecine-2,9(12H,12aH)-dione]
- pEC50: 4.15
